Measured values taken from paper PMC10580319, “Quantitative Imaging of the Action of vCPP2319, an Antimicrobial Peptide from a Viral Scaffold, against Staphylococcus aureus Biofilms of a Clinical Isolate” (ACS Infectious Diseases, 2023).
Where no end group is shown, it is not given here.

Key:
Format in all cases: cell-based, Staphylococcus aureus
[1] = test system: S. aureus clinical isolate biofilms; experiment: Colony count assay on 24 h-preformed biofilms; conditions: mean ± SD
Method: (§1) The effect of vCPP2319 on 24 h-preformed S. aureus biofilms was evaluated using three distinct methods, as previously described:[24] the metabolic activity and viability of biofilm-embedded cells was determined using a resazurin reduction fluorometric assay and a colony count assay, respectively. The total biofilm biomass was quantified by using a crystal violet assay.
(§2) S. aureus suspensions at 1 × 10^6 CFU/mL were incubated in a sterile 96-well microtiter clear flat-bottomed polystyrene plate (Corning) for 24 h at 37 °C. Nonadherent bacteria were removed after a washing step with MHB, and preformed biofilms were incubated in the absence or presence of vCPP2319 at 25 or 50 μM, for 4 h at 37 °C. Untreated biofilms were used as a control. To evaluate the effect of vCPP2319 redosing on biofilm-embedded bacteria, 24 h-preformed biofilms were incubated in the absence or presence of vCPP2319 at 25 μM, for 4 h at 37 °C. After a washing step with MHB, biofilms were further incubated in the absence or presence of an additional dose of vCPP2319 at 25 or 50 μM, for 4 h at 37 °C. In both experimental settings, after two washing steps with PBS, the biofilms were resuspended in PBS, followed by cell scrapping with a pipet tip as described elsewhere.[49],[50] […] After incubation, the biofilms were removed by cell scrapping with a pipet tip as described elsewhere.[49],[50] In all experimental settings, aliquots were vortexed at high speed, serially diluted in PBS and plated on nutrient-rich trypcase soy agar (TSA) plates (bioMérieux, Marcy l’Etoile, France). After incubation for 24 h at 37 °C, bacterial colonies were counted, and viable bacteria (in CFU/mL) were reported as percentage of the control.

[2] = test system: S. aureus ATCC 6538 biofilms; experiment: Colony count assay on 24 h-preformed biofilms; conditions: 25 or 50 μM, 4 h, colony count (Figure 2C)
Method: as §1, §2

[3] = test system: S. aureus clinical isolate biofilms; experiment: Resazurin reduction fluorometric assay on 24 h-preformed biofilms; conditions: 4 h treatment, only at 25 and 50 μM
Method: as §1
(§3) Resazurin, the active compound in alamarBlue reagent (Invitrogen), is a blue dye that can be reduced to a pink fluorescent intermediate, resorufin, as a result of cells metabolic activity.[48]S. aureus suspensions were prepared to a final concentration of 1 × 10^6 CFU/mL and incubated in a sterile 96-well microtiter black flat-bottomed polystyrene plate (Corning) for 24 h at 37 °C. […] After washing the biofilms twice with MHB, alamarBlue reagent was added at a final concentration 10% (v/v in MHB) to each sample and its reduction was monitored by measuring the fluorescence intensity (excitation and emission wavelengths were 530 and 590 nm, respectively) of the samples every 5 min during 2 h at 37 °C, in an infinite M200 microplate reader (Tecan). […] The percentage of resazurin reduction was determined relatively to the control, after blank (10% (v/v) alamarBlue reagent in MHB) correction.

[4] = test system: S. aureus ATCC 6538 biofilms; experiment: as above; conditions: 0.78 to 50 μM, 4 h and 24 h treatment, dose-dependent
Method: as §1, §3

[5] = test system: S. aureus clinical isolate biofilms; experiment: Crystal violet binding assay, biofilm biomass, with global mass and density ratios
Method: as §1
Crystal violet is a basic dye that binds to negatively charged molecules, such as those in biofilms EPS matrix and on bacterial membrane surface.[51]S. aureus suspensions at 1 × 10^6 CFU/mL were incubated in a 96-well microtiter clear flat-bottomed polystyrene plate (Corning) for 24 h at 37 °C. […] (EC 3.2.1.1), ranging from 0.0078 to 0.5 mg/mL, for 4 h at 37 °C. Untreated biofilms were used as a control. Biofilms were washed twice with MHB and incubated with 0.25% (v/v in sterile Milli-Q water) crystal violet (Sigma-Aldrich) for 30 min at room temperature. After each sample was washed three times with MHB, crystal violet was solubilized with 95% (v/v) ethanol (Carlo Erba Reagents S.A.S., France) by repeated pipetting. Biofilm biomass was quantified by measuring the absorbance at 590 nm of each sample in an infinite M200 microplate reader (Tecan). The percentage of crystal violet staining was determined relative to the control after blank (0.25% (v/v) crystal violet in sterile Milli-Q water) correction.
The mean emission fluorescence intensity of WGA integrated over a plane xy at a specific depth, z, If,WGA,xy, is proportional to the mass of polysaccharides in that plane.

[6] = test system: S. aureus clinical isolate biofilm-embedded bacteria; experiment: CLSM live/dead assay, SYTO 9 / TO-PRO-3 iodide, membrane integrity; conditions: 25 and 50 μM, 4 h in PBS, inner layer z = 2 μm
Method: To visualize the effect of vCPP2319 on membrane integrity of biofilm-embedded bacteria, an adapted live/dead assay using SYTO 9 and TO-PRO-3 iodide (Invitrogen) was performed, as previously described.[24]S. aureus suspensions at 1 × 10^6 CFU/mL were incubated in a sterile μ-Slide 8-well plate (Ibidi) for 24 h at 37 °C. Preformed biofilms were washed once with PBS and incubated with vCPP2319 at 25 or 50 μM, in PBS, for 4 h at 37 °C. Untreated biofilms were used as a control. After a washing step with PBS, biofilms were sequentially stained with 3 μM SYTO 9 for 30 min and 4 μM TO-PRO-3 iodide for 15 min at room temperature.
SYTO 9 was excited using the Argon laser (488 nm), and both TO-PRO-3 iodide and WGA Alexa Fluor 633 were excited with the Helium–Neon laser (633 nm), respectively. […] All images were analyzed with the image processor Fiji.[54] TO-PRO-3 mean fluorescence intensity over the image was quantified from the xy plane of an inner layer (z = 2 μm, z being the distance from the surface of the glass slide) using Fiji’s incorporated plug-ins.[54] WGA mean fluorescence intensity over the image was quantified from the xy plane of an inner layer (z = 2 μm, z being the distance from the surface of the glass slide) and also from a z-projection of the sum of the z-stack slices, using Fiji’s incorporated plug-ins.[54] […]

WRRRYRRWRRRRRWRRRPRR-NH2 [vCPP2319]
percentage of viable cells ([1]; 25 μM for 4 h, then second treatment at 25 μM for 4 h): 27.6 ± 13.6% | percentage of viable cells ([1]; 25 μM for 4 h, then second treatment at 50 μM for 4 h): 9.4 ± 4.7% | percentage of viable cells ([1]; first treatment 25 μM for 4 h, relative to untreated biofilm): 44.7 ± 4.3% | viability of biofilm-embedded cells [2]: decreased bacterial viability | metabolic activity of biofilm-embedded cells [3]: significantly reduced | metabolic activity of biofilm-embedded cells [4]: significant reduction | biofilm biomass reduction ([5]; 24 h-preformed biofilms, 4 h treatment, crystal violet, relative to untreated biofilm): approximately 30% | mi/mcontrol (global) eq 7 ([5]; fold variation relative to untreated biofilm, fraction of crystal violet absorbance retained): 0.7 | ρi/ρcontrol (global) eq 8 ([5]; fold variation relative to untreated biofilm, from crystal violet data and biofilm volume, for both agents fi assumed as for α-amylase alone): 1.2 | membrane damage, TO-PRO-3 iodide staining [6]: increase of red-stained bacteria
